Measurements published in ChEMBL document CHEMBL5661975, “Discovery and pharmacologic characterization of CP-724,714, a selective ErbB2 tyrosine kinase inhibitor” (Cancer Res, 2007).
In brackets after ≈: the same amount, converted by molar mass. Activity calls are given as the source filed them. The calls are words filed in the database; no cut-off is given here.

Legend:
[1] = test system: BT-474; assay: Antitumor activity against human BT-474 expressing erbB2 cells xenografted bearing female athymic nu-nu CD-1 mouse assessed as inhibition in tumor growth at 10 mg/kg, po bid administration and measured at 40 day relative to control; format: functional; conditions: BT-474, 960 h
[2] = test system: CAMA-1; assay: Antiproliferative activity against human CAMA-1 cells assessed as inhibition of cell growth; format: functional, cell-based
[3] = test system: BT-474; assay: Antitumor activity against human BT-474 expressing erbB2 cells xenografted bearing female athymic nu-nu CD-1 mouse assessed as inhibition in tumor growth at 1 mg/kg, po bid administration and measured at 40 day relative to control; format: functional; conditions: BT-474, 960 h
[4] = test system: MDA-MB-231; assay: Antitumor activity against human MDA-MB-231 low expressing erbB2 cells xenografted bearing female athymic nu-nu CD-1 mouse assessed as inhibition in tumor growth at 100 mg/kg, po bid administrated for 14 to 31 days relative to control; format: functional; conditions: time 14-31 day
[5] = Plasma concentration in human erbB2 transfected FRE cells xenografted bearing female athymic nu-nu CD-1 mouse at 25 mg/kg, po measured at 30 mins by liquid chromatography-tandem mass spectrometry analysis; format: ADME, organism-based
[6] = Antiproliferative activity against human EFM-192A cells assessed as inhibition of cell growth; format: functional, cell-based
[7] = Antiproliferative activity against human KPL-1 cells assessed as inhibition of cell growth; format: functional, cell-based
[8] = test system: ZR-75-1; assay: Antiproliferative activity against human ZR-75-1 cells assessed as inhibition of cell growth; format: functional, cell-based
[9] = test system: BT-474; assay: Antitumor activity against human BT-474 high expressing erbB2 cells xenografted bearing female athymic nu-nu CD-1 mouse assessed as inhibition in tumor growth at 100 mg/kg, po bid administrated for 8 to 40 days relative to control; format: functional; conditions: time 8-40 day
[10] = test system: BT-474; assay: Antitumor activity against human BT-474-erbB2 cells xenografted bearing female athymic nu-nu CD-1 mouse assessed as reduction in tumor erbB2 receptor phosphorylation, po administration by ELISA method; format: functional, organism-based
[11] = test system: SK-BR-3; assay: Inhibition of colony formation in human SK-BR-3 cells overexpressing erbB2 assessed as decrease in colony formation at 3 micromol/L by methanolic crystal violet staining relative to control; format: functional; conditions: dose 3 µmol/L
[12] = test system: FRE; assay: Antitumor activity against human erbB2 transfected FRE cells xenografted bearing female athymic nu-nu CD-1 mouse assessed as inhibition in tumor volume at 6.25 to 100 mg/kg, po QD administrated for 8 to 40 days; format: functional, organism-based; conditions: dose 6.25-100 mg/kg, time 8-40 day
[13] = test system: SK-BR-3; assay: Antiproliferative activity against human SK-BR-3 cells assessed as inhibition of cell growth; format: functional, cell-based
[14] = test system: EFM-19; assay: Antiproliferative activity against human EFM-19 cells assessed as inhibition of cell growth; format: functional, cell-based
[15] = Cmax in human erbB2 transfected FRE cells xenografted bearing female athymic nu-nu CD-1 mouse at 50 mg/kg, po QD administrated for 8 to 40 days by liquid chromatography-tandem mass spectrometry analysis; format: ADME, organism-based; conditions: in vivo, time 8-40 day
[16] = test system: BT-20; assay: Antiproliferative activity against human BT-20 cells assessed as inhibition of cell growth; format: functional, cell-based
[17] = test system: FRE; assay: Antitumor activity against human erbB2 transfected FRE cells xenografted bearing female athymic nu-nu CD-1 mouse assessed as tumor erbB2 receptor phosphorylation at 3.125 to 100 mg/kg, po administration by ELISA method; format: functional, organism-based; conditions: dose 3.125-100 mg/kg
[18] = Toxicity in human erbB2 transfected FRE cells xenografted bearing female athymic nu-nu CD-1 mouse assessed as body weight loss at 50 mg/kg, po QD administrated for 8 to 40 days; format: organism-based; conditions: in vivo, time 8-40 day
[19] = Antitumor activity against human erbB2 transfected FRE cells xenografted bearing female athymic nu-nu CD-1 mouse assessed as reduction in tumor erbB2 receptor phosphorylation, po administration by ELISA method; format: functional, organism-based
[20] = test system: FRE; assay: Antitumor activity against human erbB2 transfected FRE cells xenografted bearing female athymic nu-nu CD-1 mouse assessed as tumor erbB2 receptor phosphorylation at 25 mg/kg, po administration and measured at 4 hrs by ELISA method; format: functional, organism-based
[21] = test system: BT-474; assay: Antitumor activity against human BT-474 expressing erbB2 cells xenografted bearing female athymic nu-nu CD-1 mouse assessed as reduction in tumor erbB2 receptor phosphorylation at 100 mg/kg, po bid administration and measured at 40 day by ELISA method relative to control; format: functional; set-up: scale not given: the % may be the effect or the level left
[22] = test system: MDA-MB-453; assay: Antitumor activity against human MDA-MB-453 expressing erbB2 cells xenografted bearing female athymic nu-nu CD-1 mouse assessed as inhibition in tumor growth at 25 mg/kg, po bid administration and measured at 29 day relative to control; format: functional; conditions: MDA-MB-453, 696 h
[23] = test system: MDA-MB-453; assay: Antitumor activity against human MDA-MB-453 expressing erbB2 cells xenografted bearing female athymic nu-nu CD-1 mouse assessed as inhibition in tumor growth at 100 mg/kg, po bid administration and measured at 29 day relative to control; format: functional; conditions: MDA-MB-453, 696 h
[24] = test system: HCC1419; assay: Antiproliferative activity against human HCC1419 cells assessed as inhibition of cell growth; format: functional, cell-based
[25] = Antiproliferative activity against human SUM225CWN cells assessed as inhibition of cell growth; format: functional, cell-based
[26] = test system: ZR-75-30; assay: Antiproliferative activity against human ZR-75-30 cells assessed as inhibition of cell growth; format: functional, cell-based
[27] = test system: MDA-MB-361; assay: Antiproliferative activity against human MDA-MB-361 cells assessed as inhibition of cell growth; format: functional, cell-based
[28] = test system: MCF7; assay: Antiproliferative activity against human MCF7 cells assessed as inhibition of cell growth; format: functional, cell-based
[29] = test system: BT-474; assay: Induction of cell cycle arrest in Her2-amplified human BT-474 cells overexpressing erbB2 assessed as increase in G1 phase at 1 micromol/L incubated for 24 hrs by flow cytometry analysis relative to control; format: functional; conditions: dose 1 µmol/L, at 1 µM
[30] = test system: BT-474; assay: Antitumor activity against human BT-474 expressing erbB2 cells xenografted bearing female athymic nu-nu CD-1 mouse assessed as decrease in tumor growth at 30 mg/kg, po bid administration and measured at 14 day; format: functional, organism-based
[31] = Toxicity in human erbB2 transfected FRE cells xenografted bearing female athymic nu-nu CD-1 mouse assessed as mortality at 50 mg/kg, po QD administrated for 8 to 40 days; format: organism-based; conditions: in vivo, time 8-40 day
[32] = test system: BT-474; assay: Antitumor activity against human BT-474 expressing erbB2 cells xenografted bearing female athymic nu-nu CD-1 mouse assessed as reduction in tumor erbB2 receptor phosphorylation at 1 to 30 mg/kg, po bid administration and measured at 40 day by ELISA method relative to control; format: functional; set-up: scale not given: the % may be the effect or the level left; conditions: dose 1-30 mg/kg

## COCC(=O)NC/C=C/c1ccc2ncnc(Nc3ccc(Oc4ccc(C)nc4)c(C)c3)c2c1 [CP-724714]
[1]
  inhibition in vivo at 10 mg/kg: 42%
[2]
  IC50: > 10000 nM
[3]
  inhibition in vivo at 1 mg/kg: 41%
[4]
  inhibition in vivo at 100 mg/kg: 46%
[5]
  concentration at 0.5 h: ~12500 ng/mL
[6]
  IC50: 960 nM
[7]
  IC50: > 10000 nM
[8]
  IC50: > 10000 nM
[9]
  inhibition in vivo at 100 mg/kg: 83%
[10]
  EC50: 0.77 µg/mL (≈ 1.64 µM)
[11]
  inhibition at 3 µM: > 80%
[12]
  inhibition: Active
[13]
  IC50: 950 nM
[14]
  IC50: > 10000 nM
[15]
  Cmax: 4500 ng/mL
[16]
  IC50: > 10000 nM
[17]
  Activity: Active
[18]
  Activity: Non-Toxic
[19]
  EC50: 1 µg/mL (≈ 2.13 µM)
[20]
  Activity: inactive
[21]
  Activity: 81%
[22]
  inhibition in vivo at 25 mg/kg: ~19%
[23]
  inhibition in vivo at 100 mg/kg: 83%
[24]
  IC50: 1000 nM
[25]
  IC50: 990 nM
[26]
  IC50: 1500 nM
[27]
  IC50: 3700 nM
[28]
  IC50: 9800 nM
[29]
  Activity: 83%
[30]
  Activity: Active
[31]
  Activity: Non-Toxic
[32]
  Activity: 10%
